Results: PubChem BioAssay (NCI)
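1) Cells in 96-well plates. 2) Compound, 48 h, 5 concentrations. 3) Linear interpolation between surrounding doses. 4) Unreached endpoint = highest concentration. GI50 marks 50% less growth. Definition used: TGI = concentration required for complete inhibition of growth.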

Test system: HCT-116 colon
Assay: growth of human tumour cells (NCI), 48 h

**Q.** With `COc1cc(-c2c(C#N)c(N)n3c(nc4ccccc43)c2C#N)cc(Br)c1OC` as the compound, how does the GI50 read?
**A.** 4.77 µM

**Q.** And the TGI?
**A.** > 100 µM

**Q.** How did the TGI turn out when `N#CCCN(CCC#N)c1ccc(/C=C2\N=C(CN3C(=O)c4ccccc4C3=O)OC2=O)cc1` was run?
**A.** > 100 µM

**Q.** Which results are given for `Cn1cc(C2=C(c3cn(CCCN=C(N)N)c4ccccc34)C(=O)NC2=O)c2ccccc21`?
**A.** GI50: > 25 µM; TGI: > 25 µM

**Q.** For `N#C/C(C(=S)Nc1ccccc1)=C1/NN=C2c3ccccc3C(=O)NN21`, which GI50 is on record?
**A.** 29.2 µM

**Q.** What about the TGI of the same compound?
**A.** > 100 µM

**Q.** With `NCCCNCCSSCCCCS(=O)O` as the compound, how does the TGI read?
**A.** 70.2 µM

**Q.** How did the GI50 turn out when `C[C@]12CC[C@@H]3c4ccc(Oc5nc(N6CC6)nc(N6CC6)n5)cc4CC[C@H]3[C@@H]1CCC2=O` was run?
**A.** 2.46 µM

**Q.** What about the TGI of the same compound?
**A.** 18.8 µM

**Q.** For `COc1cc(C(=O)O[C@H](C(N)=O)[C@]2(C)CO2)c2ccccc2c1`, which GI50 is on record?
**A.** 5.21 µM

**Q.** What about the TGI of the same compound?
**A.** 15.8 µM

**Q.** For `Cc1cccc(C(C)(C)C)c1NC(=O)CCc1n[nH]c(=S)o1`, which TGI is on record?
**A.** 33.9 µM

**Q.** For `O=S(O)CCCCSSCCCCSSCCCCS(=O)O`, which TGI is on record?
**A.** > 100 µM

**Q.** With `CCOC(=O)NC(=O)c1cn(CCCOC(=O)NCCCCCCNC(=O)OCCCn2c(=O)c(C(=O)NC(=O)OCC)cn(C)c2=O)c(=O)n(C)c1=O` as the compound, how does the TGI read?
**A.** > 100 µM

**Q.** `COc1ccc(S(=O)(=O)N(Cc2ccc3c(n2)C=CC(C)(C)O3)C2CCC2)cc1OC` was tested. Which GI50 did it give?
**A.** < 0.01 µM

**Q.** And the TGI?
**A.** 4.05 µM

**Q.** `COc1ccc2cc(C(=O)/C=C/c3cccc(OC)c3OC)ccc2c1` was tested. Which GI50 did it give?
**A.** 3.62 µM

**Q.** And the TGI?
**A.** 13.3 µM

**Q.** With `CC(C)=CC(=O)N1CCN(C(=O)C=C(C)C)CC1` as the compound, how does the TGI read?
**A.** > 100 µM

**Q.** Which GI50 does the source give for `C[C@]12CC[C@@H]3c4ccc(O)cc4CC[C@H]3[C@@H]1CC[C@@H]2NS(=O)(=O)c1ccc(C(F)(F)F)cc1` here?
**A.** 1.74 µM

**Q.** What about the TGI of the same compound?
**A.** 3.19 µM

**Q.** For `O=C(CCCSc1nc(-c2ccc(Cl)cc2)cc(-c2ccc(Cl)cc2)n1)NO`, which GI50 is on record?
**A.** 0.532 µM

**Q.** And the TGI?
**A.** 17 µM

**Q.** Which TGI does the source give for `O=C(CC(=O)N1N=C(c2ccccc2)C(N=Nc2ccc(Cl)cc2)C1=O)Nc1ccccc1Cl` (stereo not drawn) here?
**A.** > 100 µM

Test system: EKVX NSCLC
Assay: growth of human tumour cells (NCI), 48 h

**Q.** How did the GI50 turn out when `Cc1c2c(nn1-c1ccc(S(=O)(=O)/N=C3\SCC(=O)N3C(=O)c3ccccc3)cc1)-c1ccccc1CC2` was run?
**A.** 40.5 µM

**Q.** What about the TGI of the same compound?
**A.** 90.7 µM

**Q.** Which TGI does the source give for `CN(C)C(=S)/N=c1\ss/c(=N\C(=S)N(C)C)n1-c1ccc2c(c1)OCO2` here?
**A.** > 100 µM

**Q.** `COc1ccc(C(=O)/C=C/c2cccnc2Nc2cc(OC)c(OC)c(OC)c2)cc1` was tested. Which GI50 did it give?
**A.** 5.11 µM

**Q.** And the TGI?
**A.** 19.2 µM

**Q.** Which TGI does the source give for `Nc1c(-c2ccc(Br)cc2)[n+]([O-])c2ccccc2[n+]1[O-]` here?
**A.** > 100 µM

**Q.** Which TGI does the source give for `CNC=O.[O]=[Ge].[O]=[Ge].[O]=[Ge].[O]=[Ge][OH].[O]=[Ge][OH]` here?
**A.** > 100 µM

**Q.** `N#CCCN(c1ccc(/C=C2\N=C(c3ccc(Cl)cc3)OC2=O)cc1)S(=O)(=O)c1ccccc1` was tested. Which TGI did it give?
**A.** > 100 µM

**Q.** Which TGI does the source give for `Cc1cc(NS(=O)(=O)c2ccc(NC(=O)c3cccc4c(=O)c5ccccc5[nH]c34)cc2)no1` here?
**A.** > 100 µM

**Q.** `COc1ccc(C2CC(=O)c3c(OC)cc(OC)cc3O2)cc1` (stereo not drawn) was tested. Which GI50 did it give?
**A.** > 100 µM

**Q.** And the TGI?
**A.** > 100 µM

**Q.** How did the TGI turn out when `O=C(/C=C/c1ccccc1Cl)c1ccccc1Cl` was run?
**A.** 44.4 µM

**Q.** With `CCOC(=O)[C@H]1Nc2ccc(C)cc2C2c3ccccc3CC21` (stereo partly drawn) as the compound, how does the TGI read?
**A.** > 100 µM

**Q.** Which results are given for `C[C@]12CC[C@@H]3c4ccc(O)cc4C[C@@H](CCCCCCCCCS(=O)CCCC(F)(F)C(F)(F)F)[C@H]3[C@@H]1CC[C@@H]2O` (stereo partly drawn)?
**A.** GI50: > 100 µM; TGI: > 100 µM

**Q.** Which TGI does the source give for `N#CCCN(CCC#N)c1ccc(/C=C2\N=C(CN3C(=O)c4ccccc4C3=O)OC2=O)cc1` here?
**A.** > 100 µM

**Q.** Which GI50 does the source give for `N#C/C(C(=S)Nc1ccccc1)=C1/NN=C2c3ccccc3C(=O)NN21` here?
**A.** 35.3 µM

**Q.** And the TGI?
**A.** > 100 µM

**Q.** Which TGI does the source give for `CC#CC(=O)Nc1ccccc1CC(c1c[nH]c2ccccc12)c1c[nH]c2ccccc12` here?
**A.** 54.7 µM

**Q.** With `NCCCNCCSSCCCCS(=O)O` as the compound, how does the TGI read?
**A.** > 100 µM

**Q.** Which GI50 does the source give for `COc1cc(C(=O)O[C@H](C(N)=O)[C@]2(C)CO2)c2ccccc2c1` here?
**A.** 18 µM

**Q.** What about the TGI of the same compound?
**A.** 50 µM

**Q.** How did the TGI turn out when `Cc1cccc(C(C)(C)C)c1NC(=O)CCc1n[nH]c(=S)o1` was run?
**A.** > 100 µM

**Q.** `O=S(O)CCCCSSCCCCSSCCCCS(=O)O` was tested. Which TGI did it give?
**A.** 66.3 µM

**Q.** How did the TGI turn out when `CC(=O)SCCC1c2[nH]c3ccccc3c2CCN1O` (stereo not drawn) was run?
**A.** > 100 µM

**Q.** Which GI50 does the source give for `COc1ccc2cc(C(=O)/C=C/c3cccc(OC)c3OC)ccc2c1` here?
**A.** 17.9 µM

**Q.** And the TGI?
**A.** 36.7 µM

**Q.** Which TGI does the source give for `CC(C)=CC(=O)N1CCN(C(=O)C=C(C)C)CC1` here?
**A.** > 100 µM
